Experiments:
PDE10A enzyme = PDE10A enzyme (Homo sapiens (Human), UniProt Q9Y233); assay: PDE10A inhibition assay (3H-cAMP, SPA beads); assay type: biochemical; conditions: 10 nM 3H-cAMP, 1 hour incubation; read-out: PDE10 IC50
Experimental: PDE10A can be expressed as full-length proteins or as truncated proteins, as long as they express the catalytic domain, PDE10A can be prepared in different cell types, for example insect cells or E. coli. […] Expression in coil is performed according to standard protocols. Briefly, the expression plasmids are transformed into the BL21(DE3) E. coli strain, and 50 mL cultures inoculated with the cells allowed to grow to an OD600 of 0.4-0.6 before protein expression is induced with 0.5 mM IPTG. Following induction, the cells are incubated overnight at room temperature, after which the cells are collected by centrifugation. Cells expressing PDE10A are resuspended in 12 mL (50 mM TRIS-HCl-pH8.0, 1 mM MgCl2 and protease inhibitors). The cells are lysed by sonication, and after all cells are lysed, TritonX100 is added according to Novagen protocols.
Reactions are initiated by addition of the cyclic nucleotide substrate, and reactions are allowed to proceed for one hr at room temperature before being terminated through mixing with 15 uL […] yttrium silicate SPA beads (Amersham).
Following a 1 hour incubation the reactions were terminated by addition of 15 uL 8 mg/mL yttrium silicate SPA beads (Amersham). […] were calculated by non linear regression using XLfit (IDBS).

[1] = system: PCP induced hyperactivity in mice; assay: Phencyclidine (PCP) induced hyperactivity; assay type: in vivo, mice (NMRI); conditions: Mus musculus
Experimental: Male mice (NMRI, Charles River) weighing 20-25 g are used. Eight mice are used in each group receiving the test compound (5 mg/kg) plus PCP (2.3 mg/kg) including the parallel control groups receiving the vehicle of the test compound plus PCP or vehicle injections only. The injection volume is 10 ml/kg. The experiment is made in normal light conditions in an undisturbed room. The test substance is injected per oss 60 min before injection of PCP, which is administered subcutaneous.
Immediately after injection of PCP the mice are placed individually in special designed test cage (20 cm×32 cm). The activity is measured by 5×8 infrared light sources and photocells spaced by 4 cm. The light beams cross the cage 1.8 cm above the bottom of the cage. […]
Motility is recorded in 5 min intervals for a period of 1 hour. The drug effect is calculated on the total counts during the 1 hour behavioral test period in the following manner:
The mean motility induced by vehicle treatment in the absence of PCP is used as baseline. The 100 percent effect of PCP is accordingly calculated to be total motility counts minus baseline. The response in groups receiving test compound is thus determined by the total motility counts minus baseline, expressed in percent of the similar result recorded in the parallel PCP control group. […]

[2] = system: hyperactivity in rats induced by PCP; conditions: cited from earlier work
catalepsy in rats = conditions: cited from earlier work
[3] = system: amphetamine induced hyperactivity; conditions: rats; cited from earlier work

Sequence of PDE10A enzyme (Q9Y233 716-1055): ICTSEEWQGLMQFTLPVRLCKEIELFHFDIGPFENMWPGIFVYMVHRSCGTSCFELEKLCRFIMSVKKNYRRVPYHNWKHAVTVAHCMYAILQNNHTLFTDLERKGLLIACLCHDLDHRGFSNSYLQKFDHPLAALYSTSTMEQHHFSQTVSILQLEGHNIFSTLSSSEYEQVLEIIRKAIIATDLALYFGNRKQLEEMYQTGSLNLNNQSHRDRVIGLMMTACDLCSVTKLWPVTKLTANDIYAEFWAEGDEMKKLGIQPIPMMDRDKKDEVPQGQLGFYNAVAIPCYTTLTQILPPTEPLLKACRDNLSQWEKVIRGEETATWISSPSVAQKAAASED

Row | IC50 (PDE10A enzyme) [nM] | SMILES | also measured
1 | 3.8 | Cc1ncc(C)n2nc(CCc3cn4c(n3)-c3cccnc3C4)nc12 [2-[2-(5,8-Dimethyl-[1,2,4]triazolo[1,5-a]pyrazin-2-yl)-ethyl]-5H-imidazo[1′,2′:1,5]pyrrolo[3,4-b]pyridine] | –
2 | 0.4 | Cc1ncc(C)n2nc(CCc3cn4c(n3)-c3ccccc3C4)nc12 [2-[-2-(5,8-Dimethyl-[1,2,4]triazolo[1,5-a]pyrazin-2-yl)-ethyl]-5H-imidazo[2,1-a]isoindole] | inhibition at 5 mg/kg ([1]; at 5 mg/kg per os, PCP 2.3 mg/kg s.c.): 100%; ED50 ([1]; per os 60 min before PCP 2.3 mg/kg s.c., read-out: ED50, inhibition of PCP induced hyperactivity): 0.2 mg/kg
3 | 3.1 | Cc1ncc(C)n2nc(CCc3cn4c(n3)-c3cc(F)ccc3C4)nc12 [2-[-2-(5,8-Dimethyl-[1,2,4]triazolo[1,5-a]pyrazin-2-yl)-ethyl]-8-fluoro-5H-imidazo[2,1-a]isoindole] | –
4 | 4.4 | Cc1ncc(C)n2nc(C=Cc3cn4c(n3)-c3ccccc3C4)nc12 (racemic) [2-[-2-(5,8-Dimethyl-[1,2,4]triazolo[1,5-a]pyrazin-2-yl)-vinyl]-5H-imidazo[2,1-a]isoindole] | –
5 | 0.81 | Cc1ncc(C)n2nc(CCc3cn4c(n3)-c3ccccc3CC4)nc12 [2-[2-(5,8-Dimethyl-[1,2,4]triazolo[1,5-a]pyrazin-2-yl)-ethyl]-5,6-dihydro-imidazo[2,1-a]isoquinoline] | –
6 | 0.29 | COc1ccc2c(c1)Cn1cc(CCc3nc4c(C)ncc(C)n4n3)nc1-2 [2-[2-(5,8-Dimethyl-[1,2,4]triazolo[1,5-a]pyrazin-2-yl)-ethyl]-7-methoxy-5H-imidazo[2,1-a]isoindole] | –
7 | – | COc1ccc(Cc2nccc3cc(OC)c(OC)cc23)cc1OC [Papaverine, papaverine] | Hyperactivity induced by PCP [2]: reduced hyperactivity; Catalepsy on its own (catalepsy in rats; alone): did not cause catalepsy on its own; Effect on the cataleptic effect of the D2 receptor antagonist haloperidol (catalepsy in rats; together with haloperidol): potentiated the cataleptic effect; Reduction of amphetamine induced hyperactivity [3]: insignificant
8 | 0.44 | COc1cccc2c1Cn1cc(CCc3nc4c(C)ncc(C)n4n3)nc1-2 [2-[2-(5,8-Dimethyl-[1,2,4]triazolo[1,5-a]pyrazin-2-yl)-ethyl]-6-methoxy-5H-imidazo[2,1-a]isoindole] | –
9 | 0.4 | [2H]C([2H])([2H])c1ncc(C([2H])([2H])[2H])n2nc(CCc3cn4c(n3)-c3ccccc3C4([2H])[2H])nc12 [2-[2-(5,8-Bis(trideuteromethyl-[1,2,4]triazolo[1,5-a]pyrazin-2-yl)-ethyl]-5,5-dideutero-5H-imidazo[2,1-a]isoindole] | –
10 | 6.1 | Cc1cccc2nc(CCc3cn4c(n3)-c3ccccc3C4)nn12 [2-[2-(5-Methyl-[1,2,4]triazolo[1,5-a]pyridin-2-yl)-ethyl]-5H-imidazo[2,1-a]isoindole] | –
11 | 46 | Cc1ncc(C)n2nc(CCc3cn4c(n3)-c3ncccc3C4)nc12 [2-[2-(5,8-Dimethyl-[1,2,4]triazolo[1,5-a]pyrazin-2-yl)-ethyl]-5H-imidazo[1′,2′:1,2]pyrrolo[3,4-b]pyridine] | –
12 | 0.18 | Cc1ncc(C)n2nc(CCc3cn4c(n3)-c3ccc(F)cc3C4)nc12 [2-[-2-(5,8-Dimethyl-[1,2,4]triazolo[1,5-a]pyrazin-2-yl)-ethyl]-7-fluoro-5H-imidazo[2,1-a]isoindole] | –
13 | 0.69 | Cc1ccc(C)n2nc(CCc3cn4c(n3)-c3ccccc3C4)nc12 [2-[2-(5,8-Dimethyl-[1,2,4]triazolo[1,5-a]pyridin-2-yl)-ethyl]-5H-imidazo[2,1-a]isoindole] | –
14 | 0.44 | COc1cccc2c1-c1nc(CCc3nc4c(C)ncc(C)n4n3)cn1C2 [2-[2-(5,8-Dimethyl-[1,2,4]triazolo[1,5-a]pyrazin-2-yl)-ethyl]-9-methoxy-5H-imidazo[2,1-a]isoindole] | –
15 | 0.79 | Cc1ncc(C)n2nc(CCc3cn4c(n3)-c3c(F)cccc3C4)nc12 [2-[2-(5,8-Dimethyl-[1,2,4]triazolo[1,5-a]pyrazin-2-yl)-ethyl]-9-fluoro-5H-imidazo[2,1-a]isoindole] | –
16 | 2.4 | Cc1c[n+]([O-])c(C)c2nc(CCc3cn4c(n3)-c3ccccc3C4)nn12 [2-[-2-(5,8-Dimethyl-7-oxy-[1,2,4]triazolo[1,5-a]pyrazin-2-yl)-ethyl]-5H-imidazo[2,1-a]isoindole] | –
17 | 6.9 | COc1ccc2c(c1)-c1nc(CCc3nc4c(C)ncc(C)n4n3)cn1C2 [2-[2-(5,8-Dimethyl-[1,2,4]triazolo[1,5-a]pyrazin-2-yl)-ethyl]-8-methoxy-5H-imidazo[2,1-a]isoindole] | –
18 | 1.2 | Cc1ncc(C)n2nc(CCc3cn4c(n3)-c3cccc(F)c3C4)nc12 [2-[2-(5,8-Dimethyl-[1,2,4]triazolo[1,5-a]pyrazin-2-yl)-ethyl]-6-fluoro-5H-imidazo[2,1-a]isoindole] | –
19 | 260 | Cc1cc(C)n2nc(SCc3cn4c(n3)-c3ccccc3C4)nc2n1 [2-[(5,7-dimethyl-[1,2,4]triazolo[1,5-a]pyrimidin-2-yl)sulfanylmethyl]-5H-imidazo[2,1-a]isoindole] | –
20 | 21 | Cc1ncc(C)n2nc(CCc3cn4c(n3)-c3ccccc3C4C(C)(C)O)nc12 (centres unmarked) [2-{2-[2-(5,8-Dimethyl-[1,2,4]triazolo[1,5-a]pyrazin-2-yl)-ethyl]-5H-imidazo[2,1-a]isoindol-5-yl}-propan-2-ol] | –
21 | 6.9 | Cc1cnc(CO)c2nc(CCc3cn4c(n3)-c3ccccc3C4)nn12 [{2-[2-(5H-Imidazo[2,1-a]isoindol-2-yl)-ethyl]-5-methyl-[1,2,4]triazolo[1,5-a]pyrazin-8-yl}-methanol] | –
